According to ChEMBL document CHEMBL3739335, “Phosphonooxymethyl Prodrug of Triptolide: Synthesis, Physicochemical Characterization, and Efficacy in Human Colon Adenocarcinoma and Ovarian Cancer Xenografts” (J Med Chem, 2015):

How the values were obtained:
[1] = molecular target: T1, Alkaline phosphatase, tissue-nonspecific isozyme (Bos taurus, UniProt P09487); experiment: Drug level in glycine buffer treated with Sodium (((5bS,6aS,7aR,8R,8aS,9aS,9bS,10aS,10bS)-8a-Isopropyl-10b-methyl-3-oxo-1,2,3,5,5b,6,6a,8,8a,9a,9b,10b-dodecahydrotris-(oxireno)[2',3':4b,5;'',3'':6,7;2''',3''':8a,9]phenanthro[1,2-c]furan-8-yl)oxy)methyl Phosphate at pH 9.8 in presence of bovine intestinal mucosal alkaline phosphatase; details: cattle, isolated protein
T1 sequence (P09487 whole entry): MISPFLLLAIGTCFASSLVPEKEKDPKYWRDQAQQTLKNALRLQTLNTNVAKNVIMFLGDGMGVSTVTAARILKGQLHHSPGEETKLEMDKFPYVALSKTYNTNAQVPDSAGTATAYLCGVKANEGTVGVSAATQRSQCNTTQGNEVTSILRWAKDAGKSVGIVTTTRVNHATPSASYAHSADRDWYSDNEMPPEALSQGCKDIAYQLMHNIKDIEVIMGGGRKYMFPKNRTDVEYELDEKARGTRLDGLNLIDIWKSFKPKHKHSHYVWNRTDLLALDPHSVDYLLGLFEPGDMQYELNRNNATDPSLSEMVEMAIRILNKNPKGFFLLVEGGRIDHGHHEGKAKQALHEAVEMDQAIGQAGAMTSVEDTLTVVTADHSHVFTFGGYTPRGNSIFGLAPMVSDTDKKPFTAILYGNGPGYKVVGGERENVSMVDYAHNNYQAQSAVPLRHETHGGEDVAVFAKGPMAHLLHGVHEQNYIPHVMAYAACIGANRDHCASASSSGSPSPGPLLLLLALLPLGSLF

[2] = Half life of the compound

Row | SMILES | Drug metabolism [1] | half-life [2]
1 | C=O [FORMALDEHYDE] | metabolite_detected | 1.5 min
2 | CC(C)[C@]12O[C@H]1[C@@H]1O[C@]13[C@]1(O[C@H]1C[C@H]1C4=C(CC[C@@]13C)C(=O)OC4)[C@@H]2O [TRIPTOLIDE] | metabolite_detected | 
